The text below walks through data of patent publication US20220227735A1, “THERAPEUTIC METHODS AND COMPOUNDS” (RUTGERS, THE STATE UNIVERSITY OF NEW JERSEY, priority 2019, published 2022).

Like-named read-outs stand apart in the source and are kept apart here.

Test [1] deals with T1, Plasmodium falciparum PKG (PfPKG) (Plasmodium falciparum, UniProt Q8I719).
T1 construct: Full length PfPKG was cloned into the pTrcHisC vector for expression in BL21 (DE3) Star cells; His tag (pTrcHisC vector) (N); made in house; host or cells: E. coli BL21 (DE3) Star
T1 sequence (Q8I719 whole entry): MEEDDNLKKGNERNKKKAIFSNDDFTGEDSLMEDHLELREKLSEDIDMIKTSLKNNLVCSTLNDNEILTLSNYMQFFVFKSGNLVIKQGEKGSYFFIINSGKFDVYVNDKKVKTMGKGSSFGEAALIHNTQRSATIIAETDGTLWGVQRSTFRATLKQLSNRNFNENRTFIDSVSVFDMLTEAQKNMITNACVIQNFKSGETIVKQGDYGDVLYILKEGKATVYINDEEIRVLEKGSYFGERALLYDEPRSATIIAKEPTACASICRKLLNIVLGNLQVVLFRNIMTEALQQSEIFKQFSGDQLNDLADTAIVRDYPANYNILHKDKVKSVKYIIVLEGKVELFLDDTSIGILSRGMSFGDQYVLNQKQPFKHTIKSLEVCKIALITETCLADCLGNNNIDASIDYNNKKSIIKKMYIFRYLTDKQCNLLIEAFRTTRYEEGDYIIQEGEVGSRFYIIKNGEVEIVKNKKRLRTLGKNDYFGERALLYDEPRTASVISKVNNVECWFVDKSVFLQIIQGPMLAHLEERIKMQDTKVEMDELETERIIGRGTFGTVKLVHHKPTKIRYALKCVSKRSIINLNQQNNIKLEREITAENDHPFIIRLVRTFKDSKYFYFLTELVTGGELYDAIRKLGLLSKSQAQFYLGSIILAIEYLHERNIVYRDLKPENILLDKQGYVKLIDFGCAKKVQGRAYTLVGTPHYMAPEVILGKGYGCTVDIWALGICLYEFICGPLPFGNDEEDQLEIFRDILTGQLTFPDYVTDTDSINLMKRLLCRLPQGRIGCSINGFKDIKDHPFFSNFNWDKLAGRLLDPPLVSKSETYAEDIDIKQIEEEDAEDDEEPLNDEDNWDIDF
The test can be described thus: PfPKG IMAP fluorescence polarization kinase assay. It is filed as biochemical. As for the experimental part:
Full length PfPKG was cloned into the pTrcHisC vector for expression in BL21 (DE3) Star cells. An LB culture containing 50 ug/ml carbenicillin (250 mL) was grown overnight at 37° C. The following day the culture was cooled on ice for about 10-15 minutes and divided equally into two new 125 mL cultures. 125 ml of fresh LB broth containing carbenicillin was added to each flask bringing the volume of each flask to 250 ml. Cultures were shaken at 18° C. before induction with IPTG (1.0 mM) for 18-24 h. The bacterial pellet was frozen at −80° C. until protein purification. Cells were lysed with Bacterial Protein Extraction Reagent (Thermo Scientific) on ice for 10-15 min. Supernatant was obtained after centrifugation of lysate at 21,000×g for 15 min at 4° C. Supernatant was incubated for 30 minutes at 4° C. with rotation with HisPur Cobalt Resin (Thermo Scientific), pre-washed with Wash Buffer (50 mM Hepes pH 7.8, 120 mM KCl, 20 mM NaCl, 10 mM Imidazole). Resin was added to a gravity column that was allowed to empty through gravity flow. The resin was washed with Wash buffer until no more protein is eluted off the column as determined by Bradford assay. A second wash was performed with Wash buffer containing 300 mM NaCl as in the previous wash step. Bound protein was eluted in 50 mM Hepes pH 7.8, 120 mM KCl, 20 mM NaCl, 250 mM Imidazole. Protein was dialyzed overnight in 50 mM Hepes pH 7.8, 120 mM KCl, 20 mM NaCl and 10% glycerol, with two buffer exchanges. Dialyzed protein was concentrated in a Corning Spin-X concentrator and assayed for activity using the IMAP FP Progressive Screening Expression kit (Molecular Devices, catalog #R8127) following the manufacturer's protocol.
(§1) Plasmodium falciparum PKG (PfPKG) and human PKG (hPKG) kinase activity was assayed using a commercial immobilized metal ion affinity-based fluorescence polarization (IMAP) assay according to the manufactures protocol (Molecular Devices). Briefly, kinase assays (20 μl in black half volume 96 well microtiter plates) contained; 10 mM Tris-HCl, pH 7.2, 10 mM MgCl2, 0.05% NaN3, 0.01% Tween® 20, 10 uM ATP, 1 uM cGMP and 21 ng of recombinant enzyme per well. Compounds were preincubated with enzyme at 25° C. for 15 minutes and reactions were initiated with addition of 120 nM fluorescent peptide substrates, FAM-PKAtide for PfPKG and FAM-IP3R for hPKG (Molecular Devices). Fluorescent polarization was measured using a Synergy 2 Microplate reader (BioTek, Winooski, Vt.). Fluorescent polarization was read in parallel and perpendicular with an excitation wavelength of 485 nm and an emission wavelength of 528 nm. IC50 data were analyzed using a four parameter logistic curve fit using Microsoft Excel Solver.

In a further test the test system is human PKG (hPKG). The test can be described thus: Human PKG IMAP fluorescence polarization kinase assay. It is filed as biochemical. The note with it: compound at 10 μm; recombinant hPKG, 10 uM ATP, 1 uM cGMP, FAM-IP3R substrate.
Excerpt: Human PKG, cloned into a pENTR221 vector, was obtained from DNASU.org. (HsCD00351766). It was cloned into a mammalian expression plasmid, Gateway pDEST27 (Invitrogen) for expression as a GST fusion protein, using LR Clonase II Plus enzyme (Invitrogen). The hPKG-pDEST27 plasmid was amplified in DH5a Max Efficiency Competent Cells and purified with a PureYield Plasmid Midiprep System (Promega) following the manufactures protocol. Expi293 cells were transfected with hPKG-pDEST27 using the Expifectamine 293 Transfection Kit (Gibco). After 18 hours, enhancing reagent (Gibco) was added. Cells were then collected 48 hours post-enhancing, centrifuged at 2000×g for 10 min, washed in ice cold PBS and frozen as a pellet at −80° C. until protein purification. The cell pellet was lysed with Mammalian Protein Extraction Reagent (Thermo Fisher) for 10-15 minutes. The lysate was centrifuged at 21,000×g for 15 minutes at 4° C. The supernatant was incubated for 1 h at 4° C. with glutathione resin that was pre-washed 10 times with ice cold Wash Buffer (50 mM Hepes pH 7.8, 120 mM KCl, 20 mM NaCl, 10% glycerol). The resin was loaded onto a column and washed with resin wash buffer by gravity flow until no more protein was detectable in the washes by Bradford assay. Protein was eluted with 10 mg/ml glutathione in Wash buffer. The protein was concentrated using a 30K MWCO Corning Spin X concentrator and assayed for activity as described above.
as §1

Setting [2] is: recombinant PfPKG, 10 uM ATP, 1 uM cGMP, FAM-PKAtide substrate, read-out: PfPKG (μm).

`CN1CCC(c2cc(-c3ccncc3Br)c(-c3ccc(F)cc3)[nH]2)CC1` [Example 1, 3-bromo-4-(2-(4-fluorophenyl)-5-(1-methylpiperidin-4-yl)-1H-pyrrol-3-yl)pyridine]: in test [1] (setting [2]), the IC50 was less than 1000 nM. In addition, in the test on human PKG (hPKG), the “Human PKG (10 μm)” value is 39.

For the molecule `CN1CCC(C)(c2cc(-c3ccncc3)c(-c3ccc(F)cc3)[nH]2)CC1` [Example 28, 4-(5-(1,4-dimethylpiperidin-4-yl)-2-(4-fluorophenyl)-1H-pyrrol-3-yl)pyridine], the IC50 in test [1] is less than 1000 nM. For the same molecule, the “Human PKG (10 μm)” value in the test with human PKG (hPKG) is on record as 29.

With `CN1CCC(c2cc(-c3ccncc3)c(-c3ccc(F)cc3)n2C)CC1` [Example 14, 4-(2-(4-fluorophenyl)-1-methyl-5-(1-methylpiperidin-4-yl)-1H-pyrrol-3-yl)pyridine], in test [1] (setting [2]), the IC50 is less than 1000 nM. In addition, the “Human PKG (10 μm)” value in the test with human PKG (hPKG) worked out at 14.

On to `CN(C)Cc1c(C2CCN(C)CC2)[nH]c(-c2ccc(F)cc2)c1-c1ccncc1` [Example 22, 1-(5-(4-fluorophenyl)-2-(1-methylpiperidin-4-yl)-4-(pyridin-4-yl)-1H-pyrrol-3-yl)-N,N-dimethylmethanamine], for which, in test [1] (setting [2]), the IC50 is less than 1000 nM. Also, the “Human PKG (10 μm)” value with human PKG (hPKG) is −3.

On to `CN1CCC(c2cc(-c3ccncc3CO)c(-c3ccc(F)cc3)[nH]2)CC1` [Example 6, (4-(2-(4-fluorophenyl)-5-(1-methylpiperidin-4-yl)-1H-pyrrol-3-yl)pyridin-3-yl)methanol], for which, in test [1] (setting [2]), the IC50 was less than 1000 nM. Also, the “Human PKG (10 μm)” value in the test on human PKG (hPKG) is given as −1.

Consider `CN1CCC(c2cc(-c3ccnc(N)c3)c(-c3ccc(F)cc3)[nH]2)CC1` [Example 7, 4-(2-(4-fluorophenyl)-5-(1-methylpiperidin-4-yl)-1H-pyrrol-3-yl)pyridin-2-amine], for which, in test [1] (setting [2]), the IC50 is less than 1000 nM. Further, the “Human PKG (10 μm)” value in the test on human PKG (hPKG) turned out to be 48.

For the molecule `CN1CCC(c2cc(-c3ccncc3)c(-c3ccc(F)cc3)[nH]2)CC1` [TSP, 4-(2-(4-fluorophenyl)-5-(1-methylpiperidin-4-yl)-1H-pyrrol-3-yl)pyridine, reference compound], the IC50 in test [1] (setting [2]) was less than 1000 nM. Besides, in the test with human PKG (hPKG), the “Human PKG (10 μm)” value is listed as 59.

As for `CN1CCC(c2[nH]c(-c3ccc(F)cc3)c(-c3ccncc3)c2CS(C)(=O)=O)CC1` [Example 25, 4-(2-(4-fluorophenyl)-5-(1-methylpiperidin-4-yl)-4-((methylsulfonyl)methyl)-1H-pyrrol-3-yl)pyridine], the IC50 in test [1] (setting [2]) was less than 1000 nM. Moreover, the “Human PKG (10 μm)” value in the test with human PKG (hPKG) is recorded as 17.

As for `CNCc1c(C2CCN(C)CC2)[nH]c(-c2ccc(F)cc2)c1-c1ccncc1` [Example 23], in test [1] (setting [2]), the IC50 was less than 1000 nM. Also, the “Human PKG (10 μm)” value in the test on human PKG (hPKG) is 0.

On to `CN1CCC(c2cc(-c3ccnc(C#N)c3)c(-c3ccc(F)cc3)[nH]2)CC1` [Example 9, 4-(2-(4-fluorophenyl)-5-(1-methylpiperidin-4-yl)-1H-pyrrol-3-yl)picolinonitrile], for which, in test [1] (setting [2]), the IC50 was less than 1000 nM. Besides, in the test with human PKG (hPKG), the “Human PKG (10 μm)” value was determined as 16.

On to `CC(O)c1cc(-c2cc(C3CCN(C)CC3)[nH]c2-c2ccc(F)cc2)ccn1` (centres unmarked) [Example 10, 1-(4-(2-(4-fluorophenyl)-5-(1-methylpiperidin-4-yl)-1H-pyrrol-3-yl)pyridin-2-yl)ethan-1-ol], for which the IC50 in test [1] (setting [2]) is less than 1000 nM. Further, the “Human PKG (10 μm)” value in the test with human PKG (hPKG) is given as −4.

`COc1ccc(-c2[nH]c(C3CCN(C)CC3)cc2-c2ccncc2)cc1` [Example 34, 4-(2-(4-methoxyphenyl)-5-(1-methylpiperidin-4-yl)-1H-pyrrol-3-yl)pyridine]: in test [1] (setting [2]), the IC50 is less than 1000 nM. Besides, the “Human PKG (10 μm)” value in the test with human PKG (hPKG) was determined as 38.

For `CN1CCc2c(ccc3c(-c4ccncc4)c(-c4ccc(F)cc4)[nH]c23)C1` [Example 11, 2-(4-fluorophenyl)-7-methyl-3-(pyridin-4-yl)-6,7,8,9-tetrahydro-1H-pyrrolo[2,3-f]isoquinoline], the IC50 in test [1] (setting [2]) is less than 1000 nM. Further, the “Human PKG (10 μm)” value with human PKG (hPKG) worked out at 35.
